Measurements published in ChEMBL document CHEMBL1158753, “Ammodendrine and N-methylammodendrine enantiomers: isolation, optical rotation, and toxicity” (J Nat Prod, 2005).

Assay: […] against iv dosed Swiss-Webster mouse
Format: organism-based
Conditions: in vivo

| Compound | LD50 [mg/kg] |
| --- | --- |
| CC(=O)N1C=C([C@@H]2CCCCN2C)CCC1 | 63.4 |
| CC(=O)N1C=C([C@H]2CCCCN2)CCC1 | 94.1 |
| CC(=O)N1C=C([C@@H]2CCCCN2)CCC1 | 115 |
| CC(=O)N1C=C([C@H]2CCCCN2C)CCC1 | 56.3 |
